# Measured values taken from article PMC3431236, “Characterization and optimization of ArtinM lectin expression in Escherichia coli” (BMC Biotechnology, 2012).
# Key:
# [1] = molecular target: T1, rArtinM (recombinant ArtinM) (Artocarpus integer, UniProt Q7M1T4, Q3R); experiment: affinity chromatography on D-mannose column, eluted with free D-mannose; type: binding; settings: PBS with 0.5 M NaCl, 4 °C; elution with 0.1 M D-mannose; unintentional Q3R carried by the recombinant protein
# T1 construct: coding region from cDNA clone pLL29 in pET29a(+) (NdeI/BamHI, stop codon, untagged), E. coli BL21-CodonPlus(DE3)-RP; initiator Met removed, not N-acetylated; unintentional Q3R; monomer (native is tetramer)
# [2] = molecular target: plant native ArtinM (Artocarpus integrifolia); experiment: SEC; analytical size exclusion chromatography on TSK-G2000sw, 50 mM KH2PO4, 300 mM NaCl, pH 7.4; calibrated with thyroglobulin, immunoglobulin G, ovalbumin and myoglobin
# T1 sequence (Q7M1T4 entry or part of it Q3R): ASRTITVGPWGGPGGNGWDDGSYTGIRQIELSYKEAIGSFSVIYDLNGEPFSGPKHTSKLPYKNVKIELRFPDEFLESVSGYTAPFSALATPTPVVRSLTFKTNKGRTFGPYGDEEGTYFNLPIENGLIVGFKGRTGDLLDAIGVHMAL
Molecule,"affinity chromatography on D-mannose column, eluted with free D-mannose [1]",stoichiometry N [2]
OC[C@H]1OC(O)[C@@H](O)[C@@H](O)[C@@H]1O (stereo partly drawn) [D-mannose],purified from the E. coli lysate by affinity chromatography on a D-mannose column,
plant native ArtinM (natural protein),,4
